In patent US20220225616A1, “Antifungal Wallboards” (LANXESS Deutschland GmbH, priority 2019, published 2022):
Entries after “also recorded” stand apart in the source; their conditions may differ.

Key:
[1] = test system: Fungi Mix: standard ASTM G 21-09 species extended by Fusarium solani and Aspergillus hiratsukae; assay: Gypsum board hand sheet efficacy testing (core protection), ASTM G 21-09; settings: for Fungal growth rating, Fungi Mix: in gypsum core, 4 weeks at 28-30° C.; for Overall efficacy in gypsum board test, in words: tested concentration range 25-300 ppm, interpretation of tables 2 and 3
From the text: (§1) For examination of the antifungal performance of the TBZ/BBIT combinations testing directly in gypsum boards provides realistic and practically relevant data for evaluation. […] For this purpose, a typical slurry recipe as given below for board production is used. Gypsum Board recipe:
(§2) The slurry is formed by mixing the dry components and the wet components together. The slurry is then mixed to achieve a homogeneous consistency. The fungicides are incorporated during preparation of the gypsum slurry by adding and mixing the fungicidal mixtures. For sandwiching the gypsum core, untreated cardboard (without fungicide) with a grammage of appr. 180 g/m^2 was used and after assembly of the plate the hand sheets are dried. The following antifungal compounds and respective formulations were used: • Thiabendazole • Butylbenzthiazole
(§3) For efficacy testing a test method of ASTM G 21 of 2009 was applied. As only change additional to the fungi mix as required by ASTM G 21-09, Fusarium solani and Aspergillus hiratsukae were included as further components of the mixed inoculum. According to this method, the manufactured gypsum boards as described above and after having been cut to an adequate size are placed on an agarplate and superficially are spoiled with fungal spores for a determined period of time of at the most 4 weeks. The respective total amount of actives in ppm based in gypsum/plaster (CaSO4(0.5 H2O) can be seen in the table.
(§4) Spore suspensions are produced for each fungi (spore concentrations of approximately 10^6/ml). Organisms which are included in ASTM G 21 comprise Aspergillus niger (ATCC 9642), Aureobasidium pullulans (ATCC 15233) Chaetomium globosum (ATCC 6205), Gliocladium virens (ATCC 6459) and Penicillium pinophilium (ATCC 11797) (as pure culture but also as mixed inoculum), however any other fungi species known to be able to grow in gypsum boards may be used in addition or instead. Mineral agar (according to ASTM G21 of 2009) was used as growth media in the agar plates. Before inoculation the gypsum board hand sheets are cut into pieces of appr. 5×5 cm.
(§5) For every concentration level, 3 test pieces are used in the test. Each sample is placed in a separate petri dish and then inoculated with the fungi. The samples are then incubated at 28-30° C. for 28 days. Pre-reading of the samples may be performed at approximately 10 days after inoculation. The activity of the treatments may be assessed visually, using a rating system of 0-4 for growth inhibition of fungal growth.
(§6) The reported results are recorded after 4 weeks testing at 28-30° C. according to the requirements of test method ASTM G 21 can be seen from Table 2: […]

Stachybotris chartarum = assay: as above; settings: in gypsum core, 4 weeks at 28-30° C.
From the text: as §1, §2, §3, §4, §5, §6

[2] = 25 ppm total actives based on gypsum/plaster
[3] = 50 ppm total actives based on gypsum/plaster
[4] = 100 ppm total actives based on gypsum/plaster
[5] = 200 ppm total actives based on gypsum/plaster
[6] = 300 ppm total actives based on gypsum/plaster

Compound | Fungal growth rating, Fungi Mix [1, 2] | Fungal growth rating, Fungi Mix [1, 3] | Fungal growth rating, Fungi Mix [1, 4] | Fungal growth rating, Fungi Mix [1, 5] | Fungal growth rating, Fungi Mix [1, 6] | Overall efficacy in gypsum board test, in words [1] | Fungal growth rating, Stachybotris (Stachybotris chartarum; [2]) | Fungal growth rating, Stachybotris (Stachybotris chartarum; [3]) | Fungal growth rating, Stachybotris (Stachybotris chartarum; [4]) | Fungal growth rating, Stachybotris (Stachybotris chartarum; [5]) | Fungal growth rating, Stachybotris (Stachybotris chartarum; [6])
CO/C=C(/C(=O)OC)c1ccccc1Oc1cc(Oc2ccccc2C#N)ncn1 [AZO, Azoxystrobin] | 4 (Heavy growth (60% to complete coverage)) | 4 (Heavy growth (60% to complete coverage)) | 4 (Heavy growth (60% to complete coverage)) | 4 (Heavy growth (60% to complete coverage)) | 4 (Heavy growth (60% to complete coverage)) | neither TBZ nor AZO alone are good enough to pass the ASTM G 21 test | 4 (Heavy growth (60% to complete coverage)) | 4 (Heavy growth (60% to complete coverage)) | 4 (Heavy growth (60% to complete coverage)) | 4 (Heavy growth (60% to complete coverage)) | 4 (Heavy growth (60% to complete coverage))
CCCCn1sc2ccccc2c1=O [BBIT, 2-butyl-1,2-benzisothiazolin-3-one] | 4 (Heavy growth (60% to complete coverage)) | 4 (Heavy growth (60% to complete coverage)) | 4 (Heavy growth (60% to complete coverage)) | 2 (Light growth (10 to 30%)) | 1 (Traces of growth (less than 10%)) | better than TBZ, however still not fully satisfactory | 4 (Heavy growth (60% to complete coverage)) | 4 (Heavy growth (60% to complete coverage)) | 4 (Heavy growth (60% to complete coverage)) | 2 (Light growth (10 to 30%)) | 1 (Traces of growth (less than 10%))
c1ccc2[nH]c(-c3cscn3)nc2c1 [TBZ, thiabendazole] | 4 (Heavy growth (60% to complete coverage)) | 4 (Heavy growth (60% to complete coverage)) | 4 (Heavy growth (60% to complete coverage)) | 4 (Heavy growth (60% to complete coverage)) | 3 (Medium growth (30 to 60%)) | not good enough for control of fungi growth; also recorded: neither TBZ nor AZO alone are good enough to pass the ASTM G 21 test | 4 (Heavy growth (60% to complete coverage)) | 4 (Heavy growth (60% to complete coverage)) | 4 (Heavy growth (60% to complete coverage)) | 4 (Heavy growth (60% to complete coverage)) | 3 (Medium growth (30 to 60%))
